Some test systems named below: HCC-2998 colon; OVCAR-4 ovarian; HOP-62 NSCLC; A549 NSCLC; IGROV1 ovarian; SR leukemia; UACC-62 melanoma; U251 CNS; COLO 205 colon; SF-268 CNS.
Test in all cases: NCI anticancer screen, dose series, 48 h

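Method: 48-hour compound exposure of cells in 96-well plates, five concentrations, linear interpolation of endpoints. TGI: total growth inhibition.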 Where a SMILES comes first, the peptide text is derived from it. The star is where a group is joined. Fmoc = O=C(OCC1c2ccccc2-c2ccccc21)*; Boc = CC(C)(C)OC(=O)* A value given as a limit tells only on which side of the number the result lay.

As to `CC(C)(C)c1cc2c(O)c(c1)Cc1cc(C(C)(C)C)cc(c1O)Cc1cc(C(C)(C)C)cc(c1O)Cc1cc(C(C)(C)C)cc(c1O)Cc1cc(C(C)(C)C)cc(c1O)Cc1cc(C(C)(C)C)cc(c1O)Cc1cc(C(C)(C)C)cc(c1O)Cc1cc(C(C)(C)C)cc(c1O)C2`, the TGI in the assay with HCC-2998 colon, in the assay with OVCAR-4 ovarian, in the assay with HOP-62 NSCLC, in the assay on A549 NSCLC, in the assay with IGROV1 ovarian and in the assay with SR leukemia was above 50 µM throughout. The TGI in the assay on UACC-62 melanoma, in the assay on U251 CNS, in the assay on COLO 205 colon and in the assay on SF-268 CNS was above 50 µM in each case.
With `COc1ccc(/C=C2\CCC/C(=C\c3ccc(O)c(CN4CCCCC4)c3)C2=O)cc1`, the TGI in the assay on HCC-2998 colon is 33.4 µM; in the assay with OVCAR-4 ovarian, above 79.5 µM; in the assay with HOP-62 NSCLC, above 56.3 µM; in the assay with A549 NSCLC, 52.8 µM; with IGROV1 ovarian, 41.5 µM; with SR leukemia, 19.8 µM. For the same molecule, the TGI is 36.1 µM with UACC-62 melanoma, 33.9 µM in the assay with U251 CNS, 46.9 µM in the assay with COLO 205 colon and 13.1 µM in the assay with SF-268 CNS.
Take `COc1ccc2cc(-c3nc(N)nc(N4N=C(C)CC4(C)C)n3)c(=N)oc2c1`: the TGI in the assay with HCC-2998 colon is 32.6 µM; in the assay with OVCAR-4 ovarian, 50.5 µM; in the assay on HOP-62 NSCLC, 41.6 µM; in the assay on A549 NSCLC, above 100 µM; in the assay on IGROV1 ovarian it was 37.8 µM; in the assay on SR leukemia, 32.1 µM. The TGI in the assay with UACC-62 melanoma turned out to be 36.3 µM; in the assay on U251 CNS it was 41.9 µM; in the assay on COLO 205 colon, 30.8 µM; with SF-268 CNS, 33.8 µM.
For the molecule `COc1cc(-c2[o+]c3cc(O)cc(O)c3cc2O)cc(O)c1O`, the TGI in the assay on HCC-2998 colon, in the assay on OVCAR-4 ovarian, in the assay with HOP-62 NSCLC, with A549 NSCLC, with IGROV1 ovarian and with SR leukemia was above 100 µM each time. For the same molecule, the TGI with UACC-62 melanoma, in the assay with U251 CNS, in the assay on COLO 205 colon and in the assay with SF-268 CNS was above 100 µM in each case.
As for `CSC12c3cc(C)n(-c4ccccc4)c3CC(C)(C)CN1C(=O)C2Oc1ccccc1` (stereo unspecified), the TGI was above 100 µM with HCC-2998 colon; above 100 µM in the assay on OVCAR-4 ovarian; above 100 µM with HOP-62 NSCLC; 86.4 µM with A549 NSCLC; above 100 µM in the assay on IGROV1 ovarian; above 100 µM with SR leukemia. Moreover, the TGI with UACC-62 melanoma, in the assay on U251 CNS and with COLO 205 colon was above 100 µM throughout.
Turning to `Ic1cc2c(cc1C1SCCCS1)OCO2`, the TGI in the assay on HCC-2998 colon, with OVCAR-4 ovarian, in the assay with HOP-62 NSCLC, in the assay on A549 NSCLC, in the assay on IGROV1 ovarian and in the assay on SR leukemia was above 100 µM in each case. Moreover, the TGI in the assay on UACC-62 melanoma, in the assay with U251 CNS, in the assay on COLO 205 colon and in the assay with SF-268 CNS was above 100 µM throughout.
With `Nc1nc2c(ncn2Cc2ccccc2CO)c(=O)[nH]1`, the TGI in the assay on HCC-2998 colon, with OVCAR-4 ovarian, in the assay with HOP-62 NSCLC, in the assay with A549 NSCLC, in the assay with IGROV1 ovarian and in the assay with SR leukemia was above 100 µM throughout. Further, the TGI with UACC-62 melanoma, in the assay with U251 CNS, in the assay with COLO 205 colon and in the assay on SF-268 CNS was above 100 µM each time.
As for `c1ccc2c(c1)CCc1[nH]c3c(c1-2)-c1ccccc1CC3`, the TGI in the assay on HCC-2998 colon was above 100 µM; with OVCAR-4 ovarian, above 100 µM; in the assay on HOP-62 NSCLC, 58.5 µM; in the assay on A549 NSCLC, above 100 µM; with IGROV1 ovarian it was above 100 µM; in the assay on SR leukemia, above 100 µM. Further, the TGI with UACC-62 melanoma, in the assay on U251 CNS, with COLO 205 colon and in the assay on SF-268 CNS was above 100 µM in each case.
For the molecule `COC(=O)[C@H](Cc1ccc(OC(C)(C)C)cc1)N[C@H](C)C(=O)N[C@@H](Cc1ccccc1)C(=O)OCc1ccccc1`, the TGI with HCC-2998 colon is above 100 µM; with OVCAR-4 ovarian, above 100 µM; with HOP-62 NSCLC, above 100 µM; in the assay with A549 NSCLC it was above 100 µM; in the assay with IGROV1 ovarian it was above 100 µM; in the assay on SR leukemia it was 70.5 µM. Also, the TGI in the assay on UACC-62 melanoma, in the assay with U251 CNS, in the assay with COLO 205 colon and in the assay on SF-268 CNS was above 100 µM each time.
As to `CC(C)(C)OC(=O)NCCCCC(NC(=O)C(Cc1c[nH]c2ccccc12)NC(=O)OCC1c2ccccc2-c2ccccc21)C(=O)N1CCCC1C(=O)NCC(N)=O` (stereo unspecified) (Fmoc-WK(Boc)PG-NH2; configuration not given here), the TGI in the assay with HCC-2998 colon, with OVCAR-4 ovarian, with HOP-62 NSCLC, in the assay on A549 NSCLC, in the assay on IGROV1 ovarian and in the assay with SR leukemia was above 100 µM each time. Moreover, the TGI in the assay on UACC-62 melanoma, with U251 CNS, with COLO 205 colon and with SF-268 CNS was above 100 µM in each case.
Take `O=c1[nH]c(=O)n(C2OC(CO)C(O)C2O)cc1Oc1ccccc1` (stereo unspecified): the TGI in the assay on HCC-2998 colon, with OVCAR-4 ovarian, with HOP-62 NSCLC, with A549 NSCLC, with IGROV1 ovarian and in the assay on SR leukemia was above 100 µM each time. The TGI in the assay on UACC-62 melanoma, with U251 CNS, in the assay with COLO 205 colon and with SF-268 CNS was above 100 µM each time.
On to `O=C1C=C(OCCCCl)C(=O)c2c(O)ccc(O)c21`, for which the TGI in the assay on HCC-2998 colon was found to be 3.37 µM; with OVCAR-4 ovarian, 1.71 µM; with HOP-62 NSCLC it was 2.75 µM; with A549 NSCLC, 0.645 µM; in the assay with IGROV1 ovarian, 3.44 µM; in the assay with SR leukemia it was 3.52 µM. Besides, the TGI was found to be 0.882 µM in the assay with UACC-62 melanoma, 3.56 µM in the assay on U251 CNS, 0.642 µM in the assay on COLO 205 colon and 3.16 µM with SF-268 CNS.
As for `C=C(CN1CC2C[C@](C(=O)OC)(c3cc4ccccc4[nH]3)C1C(OC)C2OC)S(=O)(=O)c1ccccc1` (stereo partly specified), the TGI was 3.73 µM in the assay on HCC-2998 colon; 12.5 µM with OVCAR-4 ovarian; 23.4 µM in the assay with HOP-62 NSCLC; 12.6 µM in the assay on A549 NSCLC; 8.98 µM in the assay on IGROV1 ovarian; 5.91 µM with SR leukemia. In addition, the TGI was 14.8 µM in the assay on UACC-62 melanoma, 8.52 µM with U251 CNS, 6.14 µM in the assay with COLO 205 colon and 15.8 µM with SF-268 CNS.
For the molecule `Cc1cccc(-c2cc(=O)c3c(C)cc(C)nc3[nH]2)c1`, the TGI is above 48.1 µM in the assay with HCC-2998 colon; above 100 µM in the assay with OVCAR-4 ovarian; above 100 µM in the assay on HOP-62 NSCLC; above 100 µM with A549 NSCLC; above 100 µM in the assay on IGROV1 ovarian; 9.3 µM with SR leukemia. For the same molecule, the TGI in the assay with UACC-62 melanoma is above 100 µM; in the assay with U251 CNS it was 37.6 µM; in the assay with COLO 205 colon it was 8.16 µM; with SF-268 CNS it was above 100 µM.
As for `FC(F)(Sc1ncc[nH]1)c1nc2ccccc2o1`, the TGI in the assay with HCC-2998 colon, in the assay with OVCAR-4 ovarian, in the assay with HOP-62 NSCLC, in the assay on A549 NSCLC, in the assay on IGROV1 ovarian and with SR leukemia was above 100 µM in each case. In addition, the TGI in the assay on UACC-62 melanoma, with U251 CNS, in the assay with COLO 205 colon and in the assay with SF-268 CNS was above 100 µM in each case.
On to `CC(C)Cc1cc2c(cc1O)CCC1C2CC[C@@]2(C)C1CC[C@@H]2O` (stereo partly specified), for which the TGI in the assay with HCC-2998 colon is 36.1 µM; with OVCAR-4 ovarian it was 24.3 µM; in the assay with HOP-62 NSCLC, 33.1 µM; in the assay with A549 NSCLC, 21.4 µM; with IGROV1 ovarian, 33.1 µM; in the assay on SR leukemia, 19.8 µM. Moreover, the TGI is 21.2 µM in the assay with UACC-62 melanoma, 27 µM in the assay with U251 CNS, 28.9 µM in the assay on COLO 205 colon and 39.4 µM in the assay on SF-268 CNS.
Regarding `COC(=O)C1(C(=O)OC)N=C(C)OC1/C=C/c1ccccc1` (stereo unspecified), the TGI in the assay with HCC-2998 colon, in the assay on OVCAR-4 ovarian, with HOP-62 NSCLC, in the assay on A549 NSCLC, in the assay with IGROV1 ovarian and with SR leukemia was above 100 µM throughout. Moreover, the TGI in the assay with UACC-62 melanoma, with U251 CNS and with COLO 205 colon was above 100 µM throughout.
Consider `COC(=O)C1=C(C(=O)OC)SC2(S1)C(C(=O)OC)=C(C(=O)OC)Sc1c2ssc1=Nc1ccc(Cl)cc1`, for which the TGI was 1.02 µM in the assay with HCC-2998 colon; 2.43 µM in the assay with OVCAR-4 ovarian; 3.36 µM in the assay on HOP-62 NSCLC; 3.13 µM in the assay with A549 NSCLC; 2.48 µM in the assay with IGROV1 ovarian; 1.73 µM with SR leukemia. Besides, the TGI came to 2.42 µM with UACC-62 melanoma, 2.64 µM with U251 CNS and 2.04 µM with COLO 205 colon.
Consider `CC1C(OC2O[C@@H]3O[C@@]4(C)CC[C@H]5[C@H](C)CC[C@@H](C2C)[C@@]35O4)O[C@@H]2O[C@@]3(C)CC[C@H]4[C@H](C)CC[C@@H]1[C@@]24O3` (stereo partly specified), for which the TGI with HCC-2998 colon, with OVCAR-4 ovarian, with HOP-62 NSCLC, with A549 NSCLC, in the assay with SR leukemia and with UACC-62 melanoma was above 50 µM in each case. Also, the TGI in the assay with U251 CNS, with COLO 205 colon and in the assay with SF-268 CNS was above 50 µM each time.

The record behind these values is PubChem BioAssay (NCI).
